From patent US10865216B2, “Tricyclic Gyrase inhibitors” (MERCK SHARP & DOHME CORP., priority 2012, dated 2020) come the findings set out here.

One experiment deals with E. coli ATCC 25922. The experiment in a line: MIC, E. coli ATCC 25922. It counts as cell-based. Conditions: Table 18, Ec.
The test system of a further experiment is S. aureus ATCC 13709. Description: MIC, S. aureus ATCC 13709. It counts as cell-based. Conditions: Table 18, Sa.

Converted amounts (≈) assume the structure as drawn. Where only a bound is given, the exact number is not on record here.

With `CNc1cc(F)cc2c1[nH]c1nc(Oc3cnn4ccnc4c3)nc(N3C[C@H]4C[C@@H]3C[C@H]4N)c12` [Compound 10.62], the MIC Ec with E. coli ATCC 25922 is ≤ 0.5 µg/mL. In addition, the MIC Sa in the experiment with S. aureus ATCC 13709 was ≤ 0.5 µg/mL.

With `CNc1cc(F)cc2c1[nH]c1nc(Oc3cnc(C(C)O)nc3)nc(N3C[C@@H]4[C@H](N)C(F)[C@@H]4C3)c12` (stereo partly shown) [Compound 10.63], the MIC Ec in the experiment on E. coli ATCC 25922 was ≤ 0.5 µg/mL. Also, in the experiment on S. aureus ATCC 13709, the MIC Sa is ≤ 0.5 µg/mL.

Consider `CNc1cc(F)c(Cl)c2c1[nH]c1nc(Oc3cnc(C)nc3)nc(N3C[C@H]4CCN[C@H]4C3)c12` [Compound 10.64], for which the MIC Ec with E. coli ATCC 25922 was ≤ 0.5 µg/mL. Besides, in the experiment on S. aureus ATCC 13709, the MIC Sa was ≤ 0.5 µg/mL.

For the compound `CNc1cc(F)cc2c1[nH]c1nc(Oc3cnc(C)nc3)nc(N3CC4CCC4(N)C3)c12` (stereo not shown) [Compound 10.65], in the experiment with E. coli ATCC 25922, the MIC Ec was ≤ 0.5 µg/mL. The MIC Sa with S. aureus ATCC 13709 is ≤ 0.5 µg/mL.

With `CNc1cc(F)c(Cl)c2c1[nH]c1nc(Oc3cnc(C)nc3)nc(N3CC4(CC[C@H]4N)C3)c12` [Compound 10.66], the MIC Ec in the experiment with E. coli ATCC 25922 was ≤ 0.5 µg/mL. Further, the MIC Sa against S. aureus ATCC 13709 is ≤ 0.5 µg/mL.

Turning to `CNc1cc(F)c(Br)c2c1[nH]c1nc(Oc3cnc(C)nc3)nc(N3C[C@H]4C[C@@H]3C[C@H]4N)c12` [Compound 10.68], the MIC Ec in the experiment with E. coli ATCC 25922 was ≤ 0.5 µg/mL. The MIC Sa against S. aureus ATCC 13709 was ≤ 0.5 µg/mL.

Regarding `CNc1cc(F)c(C#N)c2c1[nH]c1nc(Oc3cnc(C)nc3)nc(N3C[C@H]4C[C@@H]3C[C@H]4N)c12` [Compound 10.69], the MIC Ec with E. coli ATCC 25922 was ≤ 0.5 µg/mL. Further, the MIC Sa in the experiment on S. aureus ATCC 13709 was ≤ 0.5 µg/mL.

In the case of `CNc1cc(F)c(C#N)c2c1[nH]c1nc(Oc3cnc(C)nc3)nc(N3C[C@H]4CCN[C@H]4C3)c12` [Compound 10.70], the MIC Ec in the experiment with E. coli ATCC 25922 is ≤ 0.5 µg/mL. For the same compound, in the experiment with S. aureus ATCC 13709, the MIC Sa was ≤ 0.5 µg/mL.

Regarding `CNc1cc(F)c(C#N)c2c1[nH]c1nc(Oc3cnc(C)nc3)nc(N3CC4(CC[C@H]4N)C3)c12` [Compound 10.71], the MIC Ec in the experiment with E. coli ATCC 25922 was ≤ 0.5 µg/mL. Moreover, in the experiment on S. aureus ATCC 13709, the MIC Sa is ≤ 0.5 µg/mL.

On to `CNc1cc(F)cc2c1[nH]c1nc(Oc3cnc4c(c3)C(=O)OC4(C)C)nc(N3C[C@H]4C[C@@H]3C[C@H]4N)c12` [Compound 10.72], for which the MIC Ec against E. coli ATCC 25922 is ≤ 0.5 µg/mL. Further, the MIC Sa against S. aureus ATCC 13709 is ≤ 0.5 µg/mL.

Consider `CNc1cc(F)cc2c1[nH]c1nc(Oc3cnc4c(c3)C(=O)OC4(C)C)nc(N3CC4C[C@@H](N)C4C3)c12` (stereo partly shown) [Compound 10.73], for which the MIC Ec against E. coli ATCC 25922 was ≤ 0.5 µg/mL. In addition, in the experiment with S. aureus ATCC 13709, the MIC Sa is ≤ 0.5 µg/mL.

Consider `CNc1cc(F)cc2c1[nH]c1nc(Oc3cnc(C(C)O)nc3)nc(N3CC4(CC[C@]4(C)N)C3)c12` (stereo partly shown) [Compound 10.74], for which the MIC Ec in the experiment on E. coli ATCC 25922 stood at 1 µg/mL (≈ 2.09 µM). Moreover, the MIC Sa in the experiment on S. aureus ATCC 13709 is ≤ 0.5 µg/mL.

As for `CNc1cc(F)cc2c1[nH]c1nc(Oc3cnc(C)nc3)nc(N3CCC(N)(CCC#N)C3)c12` (stereo not shown) [Compound 10.75], in the experiment with E. coli ATCC 25922, the MIC Ec was found to be 1 µg/mL (≈ 2.17 µM). Moreover, in the experiment on S. aureus ATCC 13709, the MIC Sa is ≤ 0.5 µg/mL.

Take `CNc1cc(F)cc2c1[nH]c1nc(Oc3ccc([C@@H](C)O)nc3)nc(N3CC4[C@H](N)CC4(C)C3)c12` (stereo partly shown) [Compound 10.76]: the MIC Ec in the experiment with E. coli ATCC 25922 is ≤ 0.5 µg/mL. Also, in the experiment on S. aureus ATCC 13709, the MIC Sa is ≤ 0.5 µg/mL.

Take `CNc1cc(F)cc2c1[nH]c1nc(Oc3cnc(C(C)O)nc3)nc(N3C[C@H]4C[C@@H]3[C@H](C)[C@H]4N)c12` (stereo partly shown) [Compound 10.78]: the MIC Ec against E. coli ATCC 25922 is 4 µg/mL (≈ 8.36 µM). The same compound came in with an MIC Sa with S. aureus ATCC 13709 of 1 µg/mL (≈ 2.09 µM).

In the case of `CNc1cc(F)cc2c1[nH]c1nc(Oc3ccc(C)nc3)nc(N3CC4CC(C)NC4C3)c12` (stereo not shown) [Compound 10.79], the MIC Ec in the experiment with E. coli ATCC 25922 was ≤ 0.5 µg/mL. For the same compound, the MIC Sa in the experiment on S. aureus ATCC 13709 is ≤ 0.5 µg/mL.

Compound `CNc1cc(F)cc2c1[nH]c1nc(Oc3cnc(C)nc3)nc(N3CCC4(CC3)CC4CN)c12` (stereo not shown) [Compound 10.80] showed an MIC Ec in the experiment on E. coli ATCC 25922 of 2 µg/mL (≈ 4.32 µM). The compound further displayed an MIC Sa against S. aureus ATCC 13709 of 0.06 µg/mL (≈ 0.13 µM).

Compound `CNc1cc(F)c(F)c2c1[nH]c1nc(Oc3cnc(C(C)O)nc3)nc(N3CC4(CC[C@]4(C)N)C3)c12` (stereo partly shown) [Compound 10.81] had an MIC Ec against E. coli ATCC 25922 of 0.5 µg/mL (≈ 1.01 µM). In addition, the MIC Sa with S. aureus ATCC 13709 is ≤ 0.5 µg/mL.

For the compound `CNc1cc(F)cc2c1[nH]c1nc(Oc3cnc(C(C)O)nc3)nc(N3CC4CC(C3)C4N)c12` (stereo not shown) [Compound 10.82], the MIC Ec against E. coli ATCC 25922 was 0.5 µg/mL (≈ 1.08 µM). This compound also displayed an MIC Sa against S. aureus ATCC 13709 of 0.13 µg/mL (≈ 0.28 µM).

In the case of `CNc1cc(F)cc2c1[nH]c1nc(Oc3cnc4c(c3)C(=O)N(C)C4C)nc(N3CC4(CC[C@H]4N)C3)c12` (stereo partly shown) [Compound 10.83], in the experiment on E. coli ATCC 25922, the MIC Ec amounted to 1 µg/mL (≈ 1.99 µM). For the same compound, the MIC Sa against S. aureus ATCC 13709 was ≤ 0.5 µg/mL.

Consider `C=Cc1cc(F)cc2c1[nH]c1nc(Oc3cnc(C)nc3)nc(N3C[C@H]4C[C@@H]3C[C@H]4N)c12` [Compound 10.84], for which the MIC Ec in the experiment with E. coli ATCC 25922 was ≤ 0.5 µg/mL. Moreover, the MIC Sa in the experiment with S. aureus ATCC 13709 was ≤ 0.5 µg/mL.

Take `CNc1cc(F)c(Cl)c2c1[nH]c1nc(Oc3cnc4ccnn4c3)nc(N3C[C@H]4C[C@@H]3C[C@H]4N)c12` [Compound 10.85]: the MIC Ec against E. coli ATCC 25922 is ≤ 0.5 µg/mL. Further, the MIC Sa against S. aureus ATCC 13709 was ≤ 0.5 µg/mL.

As to `CNc1cc(F)c(Cl)c2c1[nH]c1nc(Oc3cnc4ccnn4c3)nc(N3C[C@H]4C[C@@H](N)[C@H]4C3)c12` [Compound 10.86], the MIC Ec against E. coli ATCC 25922 was determined as 0.25 µg/mL (≈ 0.506 µM). In addition, in the experiment with S. aureus ATCC 13709, the MIC Sa is ≤ 0.5 µg/mL.

For `CNc1cc(F)c(Cl)c2c1[nH]c1nc(Oc3cnc([C@@H](C)O)nc3)nc(N3C[C@H]4C[C@@H]3C[C@H]4N)c12` [Compound 10.87], the MIC Ec against E. coli ATCC 25922 is ≤ 0.5 µg/mL. In addition, the MIC Sa with S. aureus ATCC 13709 is ≤ 0.5 µg/mL.

As for `CNc1cc(F)c(Cl)c2c1[nH]c1nc(Oc3cnc([C@@H](C)O)nc3)nc(N3CC4(CC[C@@H]4N)C3)c12` [Compound 10.88], the MIC Ec against E. coli ATCC 25922 is ≤ 0.5 µg/mL. Further, the MIC Sa in the experiment on S. aureus ATCC 13709 was ≤ 0.5 µg/mL.

For `CCc1cc(F)cc2c1[nH]c1nc(Oc3cnc(C)nc3)nc(N3C[C@H]4C[C@@H]3C[C@H]4N)c12` [Compound 10.89], the MIC Ec against E. coli ATCC 25922 came out at 2 µg/mL (≈ 4.61 µM). In addition, the MIC Sa in the experiment on S. aureus ATCC 13709 is ≤ 0.5 µg/mL.

With `CNc1cc(F)c(Cl)c2c1[nH]c1nc(Oc3cnc4ccnn4c3)nc(N3CC4(CC[C@]4(C)N)C3)c12` [Compound 10.90], the MIC Ec in the experiment with E. coli ATCC 25922 is ≤ 0.5 µg/mL. In the experiment with S. aureus ATCC 13709, the MIC Sa was ≤ 0.5 µg/mL.

Regarding `CNc1cc(F)cc2c1[nH]c1nc(Oc3cnc(C(C)C#N)nc3)nc(N3C[C@H]4C[C@@H]3C[C@H]4N)c12` (stereo partly shown) [Compound 10.91], in the experiment on E. coli ATCC 25922, the MIC Ec was > 16 µg/mL. For the same compound, the MIC Sa against S. aureus ATCC 13709 stood at 4 µg/mL (≈ 8.45 µM).

Take `CNc1cc(F)c(F)c2c1[nH]c1nc(Oc3cnc(C)nc3)nc(N3CC[C@]4(CC[C@H]4N)C3)c12` [Compound 10.92]: the MIC Ec against E. coli ATCC 25922 was ≤ 0.5 µg/mL. In addition, the MIC Sa in the experiment with S. aureus ATCC 13709 was ≤ 0.5 µg/mL.

For `CNc1cc(F)c(F)c2c1[nH]c1nc(Oc3cnc([C@H](C)O)nc3)nc(N3CC[C@]4(CC[C@H]4N)C3)c12` [Compound 10.93], in the experiment on E. coli ATCC 25922, the MIC Ec is ≤ 0.5 µg/mL. Further, the MIC Sa in the experiment with S. aureus ATCC 13709 was ≤ 0.5 µg/mL.

On to `CNc1cc(F)c(Cl)c2c1[nH]c1nc(Oc3cnc4ccnn4c3)nc(N3CC4(CC[C@@H]4N)C3)c12` [Compound 10.94], for which, in the experiment on E. coli ATCC 25922, the MIC Ec was ≤ 0.5 µg/mL. In addition, the MIC Sa in the experiment on S. aureus ATCC 13709 is ≤ 0.5 µg/mL.

With `CNc1cc(F)c(F)c2c1[nH]c1nc(Oc3cnc(C(C)C#N)nc3)nc(N3C[C@H]4C[C@@H]3C[C@H]4N)c12` (stereo partly shown) [Compound 10.95], in the experiment with E. coli ATCC 25922, the MIC Ec is ≤ 0.5 µg/mL. In addition, the MIC Sa against S. aureus ATCC 13709 was ≤ 0.5 µg/mL.

Take `CNc1cc(F)cc2c1[nH]c1nc(Oc3ccc4cncnc4c3)nc(N3C[C@H]4C[C@@H]3C[C@H]4N)c12` [Compound 10.96]: in the experiment with E. coli ATCC 25922, the MIC Ec was ≤ 0.5 µg/mL. Besides, the MIC Sa in the experiment on S. aureus ATCC 13709 was ≤ 0.5 µg/mL.

In the case of `CNc1cc(F)cc2c1[nH]c1nc(Oc3ccc4cncnc4c3)nc(N3C[C@H]4C[C@@H]3C[C@H]4N)c12` [Compound 10.97], in the experiment with E. coli ATCC 25922, the MIC Ec is 2 µg/mL (≈ 4.25 µM). Moreover, the MIC Sa with S. aureus ATCC 13709 was ≤ 0.5 µg/mL.

Turning to `CNc1cc(F)cc2c1[nH]c1nc(Oc3cnc(N(C)N)nc3)nc(N3C[C@H]4C[C@@H]3C[C@H]4N)c12` [Compound 10.98], the MIC Ec in the experiment with E. coli ATCC 25922 was ≤ 0.5 µg/mL. The MIC Sa in the experiment on S. aureus ATCC 13709 was ≤ 0.5 µg/mL.
